# Reference: US6914045B2, “Glycopeptide antibiotics” (Wyeth Holdings Corporation, priority 2001, dated 2005)
# What was measured:
# Experiment in all cases: in vitro antibacterial evaluation, MIC by broth dilution
# Assay type in all cases: cell-based
# Enterococcus sp. = settings: broth dilution, 18 hours at 35° C.
# Procedure, shortened: (§1)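 Broth dilution per NCCLS M7-A2 in Mueller-Hinton II medium, inoculum 5×10^5 CFU/mL, antibiotic range 64-0.06 μg/mL. MIC taken as lowest concentration inhibiting growth; Gram-positive panel includes recent clinical isolates resistant to methicillin, penicillin and/or vancomycin.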
# Escherichia coli = settings: 18 hours at 35° C.
# Procedure, shortened: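 Step 1: dilute antibiotic across 64-0.06 μg/mL in Muller-Hinton II […]. Step 2: inoculate at 5×10^5 CFU/mL.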
# Staphylococcus sp. = settings: broth dilution, 18 hours at 35° C.
# Procedure, shortened: as §1
# Streptococcus sp. = settings: broth dilution, 18 hours at 35° C.
# Procedure, shortened: as §1
structure (smiles),measurement,setting,value
"CCC(C)C(=O)OC1C(CO)OC(OC2C(CO)OC(Oc3ccc(CC4NC(=O)C(C(C)c5ccccc5)NC(=O)CNC(=O)C(CO)NC(=O)C(C(O)C5CNC(=N)N5C5OC(CO)C(O)C(O)C5O)NC(=O)C(C(O)C5CNC(=N)N5)NC4=O)cc3)C(O)C2O)C(O)C1O (stereo not drawn) [Example 278c, Cyclo[glycyl-β-methylphenylalanyl-O-[4-O-[4-O-(2-methylbutanoyl)hexopyranosyl]hexopyranosyl]tyrosyl-3-(2-iminoimidazolidin-4-yl)seryl-3-(3-hexopyranosyl-2-iminoimidazolidin-4-yl)serylseryl]]",MIC Enterococcus avium (GC 4558),Enterococcus sp.; Enterococcus avium (GC 4558),32 µg/mL
same,MIC Enterococcus faecalis (ATCC 29212),Enterococcus sp.; Enterococcus faecalis (ATCC 29212),32 µg/mL
same,MIC Enterococcus faecalis (GC 4553),Enterococcus sp.; Enterococcus faecalis (GC 4553),32 µg/mL
same,MIC Enterococcus faecalis (GC 4554),Enterococcus sp.; Enterococcus faecalis (GC 4554),32 µg/mL
same,MIC Enterococcus faecalis (GC 6189),Enterococcus sp.; Enterococcus faecalis (GC 6189),32 µg/mL
same,MIC Enterococcus faecium (GC 2243),Enterococcus sp.; Enterococcus faecium (GC 2243),32 µg/mL
same,MIC Enterococcus faecium (GC 4556),Enterococcus sp.; Enterococcus faecium (GC 4556),32 µg/mL
same,MIC Enterococcus faecium (GC 4557),Enterococcus sp.; Enterococcus faecium (GC 4557),8 µg/mL
same,MIC Enterococcus faecalis (ATCC 29212),Enterococcus sp.; strain ATCC 29212,32 µg/mL
same,MIC Enterococcus faecalis (GC 2242),Enterococcus sp.; strain GC 2242,16 µg/mL
same,MIC Enterococcus faecium (GC 2243),Enterococcus sp.; strain GC 2243,32 µg/mL
same,MIC Enterococcus faecalis (GC 2691),Enterococcus sp.; strain GC 2691,32 µg/mL
same,MIC Enterococcus faecalis (GC 3059),Enterococcus sp.; strain GC 3059,32 µg/mL
same,MIC Enterococcus faecalis (GC 4552),Enterococcus sp.; strain GC 4552,32 µg/mL
same,MIC Enterococcus faecalis (GC 4553),Enterococcus sp.; strain GC 4553,32 µg/mL
same,MIC Enterococcus faecalis (GC 4554),Enterococcus sp.; strain GC 4554,32 µg/mL
same,MIC Enterococcus faecium (GC 4556),Enterococcus sp.; strain GC 4556,32 µg/mL
same,MIC Enterococcus faecium (GC 4557),Enterococcus sp.; strain GC 4557,8 µg/mL
same,MIC Enterococcus avium (GC 4558),Enterococcus sp.; strain GC 4558,32 µg/mL
same,MIC Enterococcus faecalis (GC 6189),Enterococcus sp.; strain GC 6189,32 µg/mL
same,MIC Escherichia coli (ATCC 25922),Escherichia coli; Escherichia coli (ATCC 25922),>64 µg/mL
same,MIC Escherichia coli (GC 4559),Escherichia coli; Escherichia coli (GC 4559),>64 µg/mL
same,MIC Escherichia coli (GC 4560),Escherichia coli; Escherichia coli (GC 4560),2 µg/mL
same,MIC Coagulase Negative Staphylococcus (GC 4547),Staphylococcus sp.,4 µg/mL
same,MIC Coagulase Negative Staphylococcus (GC 4548),Staphylococcus sp.,2 µg/mL
same,MIC Coagulase Negative Staphylococcus (GC 4549),Staphylococcus sp.,2 µg/mL
same,MIC Coagulase Negative Staphylococcus (GC 4551),Staphylococcus sp.,8 µg/mL
same,MIC Coagulase Negative Staphylococcus (GC 6257),Staphylococcus sp.,2 µg/mL
same,MIC Staphylococcus aureus (ATCC 29213),Staphylococcus sp.,4 µg/mL
same,MIC Staphylococcus aureus (GC 1131),Staphylococcus sp.,8 µg/mL
same,MIC Staphylococcus aureus (GC 3051),Staphylococcus sp.,2 µg/mL
same,MIC Staphylococcus aureus (GC 3053),Staphylococcus sp.,8 µg/mL
same,MIC Staphylococcus aureus (GC 4541),Staphylococcus sp.,4 µg/mL
same,MIC Staphylococcus aureus (GC 4542),Staphylococcus sp.,4 µg/mL
same,MIC Staphylococcus aureus (GC 4544),Staphylococcus sp.,4 µg/mL
same,MIC Staphylococcus aureus (GC 4545),Staphylococcus sp.,4 µg/mL
same,MIC Staphylococcus aureus-SMITH (GC 4543),Staphylococcus sp.,4 µg/mL
same,MIC Staphylococcus haemolyticus (GC 4546),Staphylococcus sp.,2 µg/mL
same,MIC Staphylococcus aureus (ATCC 29213),Staphylococcus sp.; strain ATCC 29213,4 µg/mL
same,MIC Staphylococcus aureus (GC 1131),Staphylococcus sp.; strain GC 1131,8 µg/mL
same,MIC Staphylococcus aureus (GC 3051),Staphylococcus sp.; strain GC 3051,2 µg/mL
same,MIC Staphylococcus aureus (GC 3053),Staphylococcus sp.; strain GC 3053,8 µg/mL
same,MIC Staphylococcus aureus (GC 4541),Staphylococcus sp.; strain GC 4541,4 µg/mL
same,MIC Staphylococcus aureus (GC 4542),Staphylococcus sp.; strain GC 4542,4 µg/mL
same,MIC Staphylococcus aureus (GC 4544),Staphylococcus sp.; strain GC 4544,4 µg/mL
same,MIC Staphylococcus aureus (GC 4545),Staphylococcus sp.; strain GC 4545,4 µg/mL
same,MIC Staphylococcus haemolyticus (GC 4546),Staphylococcus sp.; strain GC 4546,2 µg/mL
same,MIC Coagulase Negative Staphylococcus (GC 4547),Staphylococcus sp.; strain GC 4547,4 µg/mL
same,MIC Coagulase Negative Staphylococcus (GC 4548),Staphylococcus sp.; strain GC 4548,2 µg/mL
same,MIC Coagulase Negative Staphylococcus (GC 4549),Staphylococcus sp.; strain GC 4549,2 µg/mL
same,MIC Coagulase Negative Staphylococcus (GC 4551),Staphylococcus sp.; strain GC 4551,8 µg/mL
same,MIC Coagulase Negative Staphylococcus (GC 6257),Staphylococcus sp.; strain GC 6257,2 µg/mL
same,MIC Staphylococcus aureus-SMITH (GC 4543),Staphylococcus sp.; strain SMITH GC 4543,4 µg/mL
same,MIC Streptococcus pneumoniae (ATCC 6301),Streptococcus sp.; strain ATCC 6301,1 µg/mL
same,MIC Streptococcus pneumoniae (GC 1894),Streptococcus sp.; strain GC 1894,0.5 µg/mL
same,MIC Streptococcus pyogenes (GC 4563),Streptococcus sp.; strain GC 4563,1 µg/mL
same,MIC Streptococcus agalactiae (GC 4564),Streptococcus sp.; strain GC 4564,2 µg/mL
same,MIC Streptococcus pneumoniae (GC 4565),Streptococcus sp.; strain GC 4565,1 µg/mL
